Assay results reported in US20190169218A1, “AMPHIPATHIC COMPOUND HAVING NOVEL PENTA-SACCHARIDE HYDROPHILIC GROUP AND USE THEREOF” (Industry-University Cooperation Foundation Hanyang …, priority 2016, published 2019).

Experiments:
[1] = target: T1, human β2 adrenergic receptor (β2AR) (Homo sapiens, UniProt P07550); experiment: β2AR activity by [3H]-dihydroalprenolol radioactive ligand binding assay; type: biochemical; conditions: for long-term β2AR activity ([3H]-DHA binding): 3 or 5 days at room temperature
T1 construct: Flag; made in house
T1 sequence (P07550 whole entry): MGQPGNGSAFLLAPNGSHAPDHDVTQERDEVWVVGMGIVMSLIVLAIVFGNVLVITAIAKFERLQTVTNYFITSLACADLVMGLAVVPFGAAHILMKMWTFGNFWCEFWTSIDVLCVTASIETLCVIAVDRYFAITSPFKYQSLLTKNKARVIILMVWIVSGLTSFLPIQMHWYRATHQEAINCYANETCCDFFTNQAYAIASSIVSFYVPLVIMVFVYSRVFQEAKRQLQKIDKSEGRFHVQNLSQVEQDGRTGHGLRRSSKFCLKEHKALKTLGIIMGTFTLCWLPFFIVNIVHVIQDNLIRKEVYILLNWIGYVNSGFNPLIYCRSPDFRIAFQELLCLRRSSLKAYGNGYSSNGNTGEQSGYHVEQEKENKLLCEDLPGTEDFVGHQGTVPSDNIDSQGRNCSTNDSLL
Experimental: The membrane protein stabilizing ability of receptors (mBBr-β2ARs) solubilized in PSAs or PSEs was evaluated by measuring the binding activity of the receptors to [^3H]-dihydroalprenolol ([^3H]-DHA).
Specifically, radioactive ligand binding assay was performed as follows. β2ARs purified with 0.1 wt % DDM was concentrated to about 10 mg/mL (approximately 200 μM). β2ARs purified with DDM were used to prepare a master binding mixture containing 10 nM [^3H]-dihydroalprenolol (DHA), which was dissolved in 0.2 wt % of DDM, PSA or PSE and supplemented with 0.5 mg/mL BSA. At a concentration of 0.2 pmol, the activity of the receptors purified with the amphipathic compounds was monitored at regular intervals over a 4-day incubation period. Protein samples were incubated on ice for 2 days and then at room temperature for 2 days. Receptor activity was measured by binding assay for dissolved radioactive ligands. The receptors purified with DDM or a novel formulation (PSA-C11, PSE-C11 or PSE-C13) were incubated with 10 nM [^3H]-DHA at room temperature for 30 minutes. The mixture was loaded onto a G-50 column, a solution passed through the column was collected in 1 mL of a binding buffer (100 mM NaCl and 20 mM HEPES (pH 7.5) supplemented with 0.5 mg/mL BSA and 20×CMC amphipathic compounds), and 15 mL of a scintillation fluid was added to the solution. Receptor-bound [^3H]-DHA was measured using a scintillation counter (Beckman). Non-specific binding of [^3H]-DHA was measured by adding 1 μM alprenolol (Sigma) to the same reaction mixture. The binding degree of the receptors to [^3H]-DHA was represented by a column graph.
The ability of TPSs (TPS-As, TPS-Es and TPS-ELs) to stabilize the structures of human β2 adrenergic receptors (β2ARs) and G protein-coupled receptors (GPCRs) was measured. That is, DDM-purified receptors were diluted with a buffer solution containing only each of the TPSs without cholesteryl hemisuccinate (CHS) or a buffer solution containing CHS and DDM. The final concentration of the compounds was CMC+0.2wt %, and the binding activity of the receptors to ligands was evaluated by measuring the degree of binding of the receptors to [^3H]-dihydroalprenolol ([^3H]-DHA).
Specifically, radioactive ligand binding assay was performed as follows. β2ARs were purified with 0.1 wt % DDM (D. M. Rosenbaum et al., Science, 2007, 318, 1266-1273.) and was concentrated to about 10 mg/mL (approximately 200 μM). β2ARs purified with DDM were used to prepare a master binding mixture containing 10 nM [^3H]-dihydroalprenolol (DHA), which was dissolved in 0.2% amphipathic compounds (DDM or TPSs) and supplemented with 0.5 mg/mL BSA. The activity of the receptors purified with the amphipathic compounds was monitored at regular intervals over a 3- to 5-day incubation period. The receptors purified with DDM or TPSs were incubated with 10 nM [^3H]-DHA at room temperature for 30 minutes. The mixture was loaded onto a G-50 column, a solution passed through the column was collected in 1 mL of a binding buffer (100 mM NaCl and 20 mM HEPES (pH 7.5) supplemented with 0.5 mg/mL BSA and 20×CMC of each amphipathic compound), and 15 mL of a scintillation fluid was added to the solution. Receptor-bound [^3H]-DHA was measured using a scintillation counter (Beckman). The binding degree of the receptors to [^3H]-DHA was represented by a column graph.

[2] = target: T1, human β2 adrenergic receptor (β2AR); experiment: bimane fluorescence spectrum of mBBr-β2AR solubilized in amphipathic compounds; conditions: 0.1 wt % compound
Experimental: The structural stability of monobromobimane-labeled β2ARs (mBBr-β2ARs) solubilized in PSAs and PSEs was evaluated in the presence of a high-affinity agonist BI (BI-167107).
Specifically, monobromobimane (mBBr)-labeled β2ARs (mainly labeled on Cys265) was used to measure changes in a fluorescence spectrum induced by a local structural change near transmembrane helix 6 (TM6) (see Yao, X. et al., Nat. Chem. Biol. 2006, 2, 417-422.). 0.5 μL of BI (agonist)-bound mBBr-β2ARs dissolved at a concentration of […] in 0.1 wt % DDM was diluted with 500 μL of a buffer solution containing 0.1 wt % of each of the novel amphipathic compounds (PSA-C11, PSE-C11 and PSE-C13). After incubation of the protein samples for 30 minutes, the spectrum of mBBr was measured and compared with the spectrum of mBBr-labeled receptors dissolved in 0.1 wt % DDM. The 370 nm excitation wavelength was used for bimane fluorescence, and the emission spectra were measured at 430 to 510 nm using a Spex FluoroMax-3 spectrometer (Jobin Yvon Inc.) at 0.5 nm s^−1 in 1-nm units, and the photon counting mode was set to a 4-nm emission bandwidth pass. mBBr-labeled β2ARs dissolved in DDM were used as a positive control group. Data is representative of three independent experiments.
The structural change and structural stability of mBBr-β2ARs by PSAs/PSEs and DDM according the presence or absence of a full agonist (isoproterenol, ISO) or the combination of ISO and a G-protein were measured. It is well known that a full agonist (e.g., BI) and the binding of a Gs-protein are simultaneously required for full activation of receptors (see Rasmussen, S. G. F. et al., Nature 2011, 469, 175-180.).
Specifically, G protein coupling experiments were performed using the following method. 0.5 μL of non-ligand mBBr-labeled receptors at a concentration of 50 μM was diluted with 500 μL of a buffer solution containing a 0.1 wt % amphipathic compound at room temperature for 15 minutes. After dilution, a dilution containing the receptors at a final concentration of 50 nM was obtained. 2 μM isoproterenol (ISO) was added to the diluted solution, and the solution was incubated for an additional 15 minutes. 250 nM Gs-protein was additionally added to the solution, and then the protein samples included in the solution were incubated at room temperature for an additional 20 minutes. The 370 nm excitation wavelength was used for bimane fluorescence, and the emission spectra were measured at 430 to 510 nm using a Spex FluoroMax-3 spectrometer (Jobin Yvon Inc.) at 0.5 nm s^−1 in 1-nm units, and the photon counting mode was set to a 4-nm emission bandwidth pass. The same experiment was repeated using 0.1 wt % DDM, which was used as a positive control. Data is representative of three independent experiments.

[3] = first two days of incubation at 0° C.
[4] = in the presence of agonist BI (BI-167107)
[5] = in the presence of full agonist isoproterenol (ISO)

| Compound | long-term β2AR activity ([3H]-DHA binding) [1] | β2AR activity ([3H]-DHA binding) during incubation [1, 3] | bimane fluorescence spectrum of mBBr-β2AR [2, 4] | bimane fluorescence spectrum of mBBr-β2AR [2, 5] | initial β2AR activity ([3H]-DHA binding) ([1]; 0.2 wt % DDM, PSA or PSE) | β2AR activity ([3H]-DHA binding) during incubation ([1]; incubation at room temperature (days 3-4)) | initial β2AR activity ([3H]-DHA binding) ([1]; TPSs at CMC+0.2wt %, without CHS) |
| --- | --- | --- | --- | --- | --- | --- | --- |
| CCCCCCCCCCCCO[C@@H]1O[C@H](CO)[C@@H](O[C@H]2O[C@H](CO)[C@@H](O)[C@H](O)[C@H]2O)[C@H](O)[C@H]1O [DDM, n-dodecyl-β-D-maltopyranoside, reference compound] | the activity was rapidly lost over time | well maintained the initial activity thereof | – | – | – | – | – |
| CCCCCCCCCCCC(CCCCCCCCCCC)CO[C@@H]1OC(CO[C@@H]2OC(CO)[C@@H](O)C(O)C2O)[C@@H](O[C@@H]2OC(CO)[C@@H](O)C(O)C2O)C(O[C@@H]2OC(CO)[C@@H](O)C(O)C2O)C1O[C@@H]1OC(CO)[C@@H](O)C(O)C1O (stereo partly drawn) [PSA-C11] | – | well maintained the initial activity thereof | very similar to that obtained from the receptors dissolved in DDM | spectra similar to the receptor solubilized by DDM | – | – | – |
| CCCCCCCCCCCOCC(COCCCCCCCCCCC)O[C@@H]1OC(CO[C@@H]2OC(CO)[C@@H](O)C(O)C2O)[C@@H](O[C@@H]2OC(CO)[C@@H](O)C(O)C2O)C(O[C@@H]2OC(CO)[C@@H](O)C(O)C2O)C1O[C@@H]1OC(CO)[C@@H](O)C(O)C1O (stereo partly drawn) [PSE-C11] | – | well maintained the initial activity thereof | very similar to that obtained from the receptors dissolved in DDM | spectra similar to the receptor solubilized by DDM | higher initial activity than proteins solubilized in DDM | the best | – |
| CCCCCCCCCCCCCOCC(COCCCCCCCCCCCCC)O[C@@H]1OC(CO[C@@H]2OC(CO)[C@@H](O)C(O)C2O)[C@@H](O[C@@H]2OC(CO)[C@@H](O)C(O)C2O)C(O[C@@H]2OC(CO)[C@@H](O)C(O)C2O)C1O[C@@H]1OC(CO)[C@@H](O)C(O)C1O (stereo partly drawn) [PSE-C13] | – | well maintained the initial activity thereof | somewhat different bimane fluorescence spectrum compared to the receptors dissolved in DDM | – | higher initial activity than proteins solubilized in DDM | – | – |
| CCCCCCCCOCC(COCCCCCCCC)(COCCCCCCCC)CO[C@@H]1OC(CO[C@@H]2OC(CO)[C@@H](O)C(O)C2O)[C@@H](O[C@@H]2OC(CO)[C@@H](O)C(O)C2O)C(O[C@@H]2OC(CO)[C@@H](O)C(O)C2O)C1O[C@@H]1OC(CO)[C@@H](O)C(O)C1O (stereo partly drawn) [TPS-E8] | significantly better than that of DDM | – | – | – | – | – | the most excellent |
